From patent publication US11111242B2, “Pyrrolo[2,3-d]pyrimidinyl, pyrrolo[2,3-b]pyrazinyl and pyrrolo[2,3-d]pyridinyl acrylamides” (Pfizer Inc., priority 2013, dated 2021) come the findings set out here.

Assay [1] deals with IL-15 induced P-STAT5 in human PBMC (total lymphocytes). The experiment in a line: PBMC IL-15 Induced P-STAT5. The following applies: IL-15 stimulated, read-out: PBMC IL15-pSTAT5 IC50. It counts as cell-based. A digest of the protocol:
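Thawed human PBMC in RPMI, preincubated 30 min at 37 °C, then IL-15 stimulated. Cells methanol-permeabilized (90%, on ice 20 min) and stained for phospho-STAT5. Read by flow cytometry, gated on total lymphocytes.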

For assay [2], the system named is IL-15 induced STAT5 phosphorylation in Human Whole Blood (total lymphocytes). The experiment in a line: HWB IL-15 Induced STAT5 Phosphorylation Assay. It counts as cell-based. The following applies: Lymphocyte, IL-15 stimulated, read-out: HWB-IL15-pSTAT5 IC50. The protocol:
HWB IL-15 Induced STAT5 Phosphorylation Assay
After mixing and incubating for 45 minutes at 37° C., 5 μl D-PBS (unstimulated control) or 20× stocks of 5 μl human IL-15 (final concentration is 50 ng/ml) were added, and mixed three times. After incubating 15 minutes at 37° C., 1× Lyse/Fix Buffer (BD Phosflow 5× Lyse/Fix Buffer) was added to all wells at 1000 μl/well, then incubated for 20 minutes at 37° C. and spun 5 mins at 1200 rpm. […] Following incubating at 4° C. over night, all the samples were transferred to 96-well polypropylene U-bottom plate, and checked by flow cytometry gated on total lymphocytes.

A word on the IC50: it is the midpoint of a concentration-inhibition curve.

Molecules are shown by their SMILES. Read-outs that look alike come from different tables or passages of the source.

For `C=CC(=O)N1C[C@@H](O)C[C@@H](Nc2ncnc3[nH]ccc23)C1` [Example 17, 1-((3R,5S)-3-(7H-Pyrrolo[2,3-d]pyrimidin-4-ylamino)-5-hydroxypiperidin-1-yl)prop-2-en-1-one], the IC50 in assay [1] (Homo sapiens, PBMC) stood at 71.8 nM; in assay [2], 210 nM.

Consider `C=CC(=O)N1C[C@H](Nc2ncnc3[nH]cc(Cl)c23)CC[C@@H]1C` [Example 18, 1-((2S,5R)-5-((5-Chloro-7H-pyrrolo[2,3-d]pyrimidin-4-yl)amino)-2-methylpiperidin-1-yl)prop-2-en-1-one], for which the half-inhibitory concentration (IC50) is 31.5 nM in assay [1] and 555 nM in assay [2].

Regarding `C=CC(=O)N1C[C@H](Nc2ncnc3[nH]ccc23)C[C@H](OC)C1` [Example 19, 1-((3R,5S)-3-((7H-Pyrrolo[2,3-d]pyrimidin-4-yl)amino)-5-methoxypiperidin-1-yl)prop-2-en-1-one], the figures for the IC50 in assay [1] and in assay [2] were 139 nM and 505 nM, respectively.

As for `C=CC(=O)N1CCC[C@@H](Nc2ncnc3[nH]cc(F)c23)C1` [Example 42, 1-{(3R)-3-[(5-fluoro-7H-pyrrolo[2,3-d]pyrimidin-4-yl)amino]piperidin-1-yl}prop-2-en-1-one], the IC50 in assay [1] (Homo sapiens, PBMC) worked out at 293 nM; in assay [2] it was 819 nM.

`C=CC(=O)N1CCC[C@@H](Nc2ncnc3[nH]cc(C)c23)C1` [Example 43, 1-{(3R)-3-[(5-methyl-7H-pyrrolo[2,3-d]pyrimidin-4-yl)amino]piperidin-1-yl}prop-2-en-1-one]: the 50% inhibitory concentration (IC50) in assay [1] is 116 nM; in assay [2], 463 nM.

Regarding `C=CC(=O)N1CCC[C@@H](Nc2ncnc3[nH]cc(CC)c23)C1` [Example 44, 1-{(3R)-3-[(5-ethyl-7H-pyrrolo[2,3-d]pyrimidin-4-yl)amino]piperidin-1-yl}prop-2-en-1-one], the values for the IC50 in assay [1] and in assay [2] were 320 nM and 1180 nM, respectively.

With `C=CC(=O)N1CCC[C@@H](Nc2ncnc3[nH]cc(C#N)c23)C1` [Example 45, 4-{[(3R)-1-acryloylpiperidin-3-yl]amino}-7H-pyrrolo[2,3-d]pyrimidine-5-carbonitrile], the IC50 in assay [1] was found to be 348 nM; in assay [2], 1010 nM.

As to `C=CC(=O)N1CCC[C@@H](Nc2ncnc3[nH]cc(CCOC)c23)C1` [Example 46, 1-[(3R)-3-{[5-(2-methoxyethyl)-7H-pyrrolo[2,3-d]pyrimidin-4-yl]amino}piperidin-1-yl]prop-2-en-1-one], the IC50 in assay [1] (Homo sapiens, PBMC) was 279 nM; in assay [2], 359 nM.

For `C=CC(=O)N1CC[C@@H](F)[C@@H](Nc2ncnc3[nH]ccc23)C1` [Example 54, 1-((3S,4R)-3-((7H-Pyrrolo[2,3-d]pyrimidin-4-yl)amino)-4-fluoropiperidin-1-yl)prop-2-en-1-one], the IC50 is 222 nM in assay [1] (Homo sapiens, PBMC) and 366 nM in assay [2].

In the case of `C=CC(=O)N1C[C@H](Nc2ncnc3[nH]ccc23)C[C@H](N(C)C)C1` [Example 57, 1-((3R,5S)-3-((7H-Pyrrolo[2,3-d]pyrimidin-4-yl)amino)-5-(dimethylamino)piperidin-1-yl)prop-2-en-1-one], the values for the half-maximal inhibitory concentration (IC50) in assay [1] and in assay [2] were 1230 nM and 2610 nM, respectively.

Take `C=CC(=O)N1C[C@@H](C#N)C[C@@H](Nc2ncnc3[nH]ccc23)C1` [Example 58, (3S,5R)-5-((7H-pyrrolo[2,3-d]pyrimidin-4-yl)amino)-1-acryloylpiperidine-3-carbonitrile]: the values for the IC50 in assay [1] and in assay [2] were 2790 nM and 7840 nM, respectively.

On to `C=CC(=O)N1C[C@H](O)C[C@@H](Nc2ncnc3[nH]ccc23)C1` [Example 60, 1-((3R,5R)-3-((7H-Pyrrolo[2,3-d]pyrimidin-4-yl)amino)-5-hydroxypiperidin-1-yl)prop-2-en-1-one], for which the IC50 came to 2470 nM in assay [1] (Homo sapiens, PBMC) and 2780 nM in assay [2].

In the case of `C=CC(=O)N1C[C@H](Nc2ncnc3[nH]cc(C#N)c23)CC[C@@H]1C` [Example 163, 4-{[(3R,6S)-1-Acryloyl-6-methylpiperidin-3-yl]amino}-7H-pyrrolo[2,3-d]pyrimidine-5-carbonitrile], the IC50 amounted to 109 nM in assay [1] (Homo sapiens, PBMC) and 522 nM in assay [2].

Regarding `C=CC(=O)N1C[C@H](Nc2ccnc3[nH]cc(C#N)c23)CC[C@@H]1C` [Example 165, 4-{[(3R,6S)-1-Acryloyl-6-methylpiperidin-3-yl]amino}-1H-pyrrolo[2,3-b]pyridine-3-carbonitrile], the half-inhibitory concentration (IC50) amounted to 40.6 nM in assay [1] (Homo sapiens, PBMC) and 380 nM in assay [2].

On to `C=CC(=O)N1CCC(Nc2cnc3[nH]cc(C(=O)NC(C)C)c3n2)CC1` [Example 168, 2-[(1-acryloylpiperidin-4-yl)amino]-N-(propan-2-yl)-5H-pyrrolo[2,3-b]pyrazine-7-carboxamide], for which the IC50 in assay [1] (Homo sapiens, PBMC) was determined as 37.1 nM; in assay [2], 136 nM.

`C=CC(=O)N1CC[C@H](Nc2cnc3[nH]cc(C(=O)NC(C)C)c3n2)C1` [Example 171, 2-{[(3S)-1-acryloylpyrrolidin-3-yl]amino}-N-(propan-2-yl)-5H-pyrrolo[2,3-b]pyrazine-7-carboxamide]: the results for the IC50 in assay [1] and in assay [2] were 726 nM and 2950 nM, respectively.

As for `C=CC(=O)N1CCN(c2cnc3[nH]cc(C(=O)NC(C)C)c3n2)CC1` [Example 174, 2-(4-acryloylpiperazin-1-yl)-N-(propan-2-yl)-5H-pyrrolo[2,3-b]pyrazine-7-carboxamide], the IC50 in assay [1] turned out to be 58.4 nM; in assay [2] it was 623 nM.

On to `C=CC(=O)N1CCC[C@H]1CNc1cnc2[nH]cc(C(=O)NC(C)C)c2n1` [Example 177, 2-({[(2S)-1-acryloylpyrrolidin-2-yl]methyl}amino)-N-(propan-2-yl)-5H-pyrrolo[2,3-b]pyrazine-7-carboxamide], for which the IC50 in assay [1] (Homo sapiens, PBMC) was found to be 108 nM; in assay [2] it was 804 nM.

As to `C=CC(=O)N1CC(Nc2cnc3[nH]cc(C(=O)NC(C)C)c3n2)C1` [Example 188, 2-[(1-acryloylazetidin-3-yl)amino]-N-(propan-2-yl)-5H-pyrrolo[2,3-b]pyrazine-7-carboxamide], the IC50 in assay [1] (Homo sapiens, PBMC) is 155 nM; in assay [2] it was 246 nM.

Consider `C=CC(=O)N1CC[C@@H](CNc2cnc3[nH]cc(C(=O)NC(C)C)c3n2)C1` [Example 191, 2-({[(3S)-1-acryloylpyrrolidin-3-yl]methyl}amino)-N-(propan-2-yl)-5H-pyrrolo[2,3-b]pyrazine-7-carboxamide], for which the IC50 was determined as 2650 nM in assay [1] and 9580 nM in assay [2].

As for `C=CC(=O)N1CC[C@@H](Nc2cnc3[nH]cc(C(=O)NC(C)C)c3n2)[C@H](O)C1` [Example 196, 2-{[(3R,4R)-1-acryloyl-3-hydroxypiperidin-4-yl]amino}-N-(propan-2-yl)-5H-pyrrolo[2,3-b]pyrazine-7-carboxamide], the IC50 in assay [1] was found to be 1490 nM; in assay [2] it was 3290 nM.

Regarding `C=CC(=O)N1CCC(Nc2cnc3[nH]cc(-c4ccnc(C)c4)c3n2)CC1` [Example 201, 1-(4-{[7-(2-methylpyridin-4-yl)-5H-pyrrolo[2,3-b]pyrazin-2-yl]amino}piperidin-1-yl)prop-2-en-1-one], the IC50 in assay [1] is 262 nM; in assay [2] it was 3480 nM.

Consider `C=CC(=O)N1CCC(Nc2cnc3[nH]cc(-c4cncnc4)c3n2)CC1` [Example 202, 1-(4-{[7-(pyrimidin-5-yl)-5H-pyrrolo[2,3-b]pyrazin-2-yl]amino}piperidin-1-yl)prop-2-en-1-one], for which the values for the IC50 in assay [1] and in assay [2] were 670 nM and 3740 nM, respectively.

Consider `C=CC(=O)N1CCC(Nc2cnc3[nH]cc(-c4cccnc4)c3n2)CC1` [Example 205, 1-(4-{[7-(pyridin-3-yl)-5H-pyrrolo[2,3-b]pyrazin-2-yl]amino}piperidin-1-yl)prop-2-en-1-one], for which the IC50 in assay [1] is 219 nM; in assay [2] it was 1880 nM.

As for `C=CC(=O)N1CCC(Nc2cnc3[nH]cc(-c4ccc(F)nc4)c3n2)CC1` [Example 207, 1-(4-{[7-(6-fluoropyridin-3-yl)-5H-pyrrolo[2,3-b]pyrazin-2-yl]amino}piperidin-1-yl)prop-2-en-1-one], the results for the 50% inhibitory concentration (IC50) in assay [1] and in assay [2] were 185 nM and 2820 nM, respectively.

As for `C=CC(=O)N1CCC(Nc2cnc3[nH]cc(-c4ccccc4)c3n2)CC1` [Example 209, 1-{4-[(7-phenyl-5H-pyrrolo[2,3-b]pyrazin-2-yl)amino]piperidin-1-yl}prop-2-en-1-one], the IC50 in assay [1] turned out to be 152 nM; in assay [2], 6690 nM.

Consider `C=CC(=O)N1CCC(Nc2cnc3[nH]cc(-c4cnc(OC)nc4)c3n2)CC1` [Example 210, 1-(4-{[7-(2-methoxypyrimidin-5-yl)-5H-pyrrolo[2,3-b]pyrazin-2-yl]amino}piperidin-1-yl)prop-2-en-1-one], for which the IC50 is 462 nM in assay [1] (Homo sapiens, PBMC) and 2680 nM in assay [2].

In the case of `C=CC(=O)N1CCC(Nc2cnc3[nH]cc(-c4ccnc(F)c4)c3n2)CC1` [Example 211, 1-(4-{[7-(2-fluoropyridin-4-yl)-5H-pyrrolo[2,3-b]pyrazin-2-yl]amino}piperidin-1-yl)prop-2-en-1-one], the values for the 50% inhibitory concentration (IC50) in assay [1] and in assay [2] were 206 nM and 4330 nM, respectively.

Consider `C=CC(=O)N1CCC(Nc2cnc3[nH]cc(-c4cncc(F)c4)c3n2)CC1` [Example 212, 1-(4-{[7-(5-fluoropyridin-3-yl)-5H-pyrrolo[2,3-b]pyrazin-2-yl]amino}piperidin-1-yl)prop-2-en-1-one], for which the figures for the half-maximal inhibitory concentration (IC50) in assay [1] and in assay [2] were 154 nM and 2080 nM, respectively.
